For series [1], the system named is MCF7. The series is described as follows: Antiproliferative activity against human MCF7 cells by CCK8 assay. Type of series: functional, cell-based.
The nature of series [2]: Cytotoxicity against human PBMCs by CCK8 assay. Type of series: toxicity, cell-based, PBMC. (Tetrazolium dyes change colour on reduction, which living cells bring about.)
The test system of series [3] is PANC-1. Nature of the series: Antiproliferative activity against human PANC-1 cells by CCK8 assay. The class given is functional, cell-based.
Series [4] deals with HepG2. The series is described as follows: Antiproliferative activity against human HepG2 cells by CCK8 assay. Type of series: functional, cell-based.
Series [5] relates to A549. Nature of the series: Antiproliferative activity against human A549 cells by CCK8 assay. Type of series: functional, cell-based.
For series [6], the system named is MDA-MB-231. The series is described as follows: Antiproliferative activity against human MDA-MB-231 cells by CCK8 assay. The class given is functional, cell-based.
For series [7], the system named is K562. The series is described as follows: Antiproliferative activity against human K562 cells by CCK8 assay. Type of series: functional, cell-based.

A value given as a limit tells only on which side of the number the result lay.

22 compounds from ChEMBL document CHEMBL5584203, “Discovery of sinomenine/8-Bis(benzylthio)octanoic acid hybrids as potential anti-leukemia drug candidate via mitochondrial pathway” (Bioorg Med Chem Lett, 2024) can be followed below.

With `COC1=CC2[C@@H]3Cc4c(Br)cc(OC)c(OCCCCOC(=O)CCCCC(CCSCc5ccccc5)SCc5ccccc5)c4[C@]2(CCN3C)CC1=O` (stereo partly drawn), the IC50 in series [1], in series [2], in series [3], in series [4], in series [5] and in series [6] was greater than 50 µM in each case. In addition, the IC50 – broadly, the midpoint of a concentration-inhibition curve – in series [7] worked out at 25.1 µM.
Turning to `COC1=CC2[C@@H]3Cc4c(Cl)cc(OC)c(OCCCCOC(=O)CCCCC(CCSCc5ccccc5)SCc5ccccc5)c4[C@]2(CCN3C)CC1=O` (stereo partly drawn), the IC50 in series [1], in series [2], in series [3], in series [4], in series [5] and in series [6] was greater than 50 µM each time. Further, in series [7], the IC50 came to 17.8 µM.
In the case of `COC1=CC2[C@@H]3Cc4c(Cl)cc(OC)c(O)c4[C@]2(CCN3C)CC1=O` (stereo partly drawn), the IC50 in series [1] is greater than 50 µM; in series [3] it was greater than 50 µM; in series [4], greater than 50 µM; in series [5] it was greater than 50 µM; in series [6], greater than 50 µM; in series [7], 39.3 µM.
For the compound `COC1=CC2[C@@H]3Cc4c(Br)cc(OC)c(OCCCCCOC(=O)CCCCC(CCSCc5ccccc5)SCc5ccccc5)c4[C@]2(CCN3C)CC1=O` (stereo partly drawn), the IC50 in series [1], in series [2], in series [3], in series [4], in series [5] and in series [6] was greater than 50 µM each time. For the same compound, inhibition in series [7] was half-maximal at 22.5 µM (IC50).
Consider `COC1=CC2[C@@H]3Cc4c(Cl)cc(OC)c(OCCOC(=O)CCCCC(CCSCc5ccccc5)SCc5ccccc5)c4[C@]2(CCN3C)CC1=O` (stereo partly drawn), for which the IC50 in series [1], in series [2], in series [3], in series [4], in series [5] and in series [6] was greater than 50 µM each time. The compound also displayed an IC50 in series [7] of 16.8 µM.
For `COC1=CC2[C@@H]3Cc4c(Cl)cc(OC)c(OCCCCCOC(=O)CCCCC(CCSCc5ccccc5)SCc5ccccc5)c4[C@]2(CCN3C)CC1=O` (stereo partly drawn), the IC50 in series [1], in series [2], in series [3], in series [4], in series [5] and in series [6] was greater than 50 µM throughout. This compound also had an IC50 in series [7] of 19.5 µM.
Consider `COC1=CC2[C@@H]3Cc4c(Br)cc(OC)c(O)c4[C@]2(CCN3C)CC1=O` (stereo partly drawn), for which the IC50 in series [1] is greater than 50 µM; in series [3], greater than 50 µM; in series [4], greater than 50 µM; in series [5], greater than 50 µM; in series [6], greater than 50 µM; in series [7], 33 µM.
`COC1=CC2[C@@H]3Cc4c(Br)cc(OC)c(OC(=O)CCCCC(CCSCc5ccccc5)SCc5ccccc5)c4[C@]2(CCN3C)CC1=O` (stereo partly drawn): the IC50 in series [1], in series [2], in series [3], in series [4], in series [5] and in series [6] was greater than 50 µM throughout. The compound also gave an IC50 in series [7] of 17.4 µM.
In the case of `COC1=C[C@@H]2[C@@H]3Cc4ccc(OC)c(O)c4[C@]2(CCN3C)CC1=O` [SINOMENINE], the IC50 in series [1] is greater than 50 µM; in series [3], greater than 50 µM; in series [4] it was greater than 50 µM; in series [5], greater than 50 µM; in series [6] it was greater than 50 µM; in series [7], 37.2 µM.
With `COC1=CC2[C@@H]3Cc4c(Cl)cc(OC)c(OCCCCCCOC(=O)CCCCC(CCSCc5ccccc5)SCc5ccccc5)c4[C@]2(CCN3C)CC1=O` (stereo partly drawn), the IC50 in series [1], in series [2], in series [3], in series [4], in series [5] and in series [6] was greater than 50 µM throughout. Also, the IC50 in series [7] was found to be 21.5 µM.
For `O=C(O)CCCCC(CCSCc1ccccc1)SCc1ccccc1` (stereo not drawn) [CPI 613], the IC50 in series [1], in series [3], in series [4], in series [5], in series [6] and in series [7] was greater than 50 µM throughout.
With `COC1=CC2[C@@H]3Cc4c(Cl)cc(OC)c(OCCCOC(=O)CCCCC(CCSCc5ccccc5)SCc5ccccc5)c4[C@]2(CCN3C)CC1=O` (stereo partly drawn), the IC50 in series [1], in series [2], in series [3], in series [4], in series [5] and in series [6] was greater than 50 µM each time. Moreover, the midpoint of inhibition in series [7], the IC50, lay at 27.4 µM.
With `COC1=CC2[C@@H]3Cc4ccc(OC)c(OCCCCCCOC(=O)CCCCC(CCSCc5ccccc5)SCc5ccccc5)c4[C@]2(CCN3C)CC1=O` (stereo partly drawn), the IC50 in series [1] is greater than 50 µM; in series [2] it was greater than 50 µM; in series [3] it was greater than 50 µM; in series [4], 28.2 µM; in series [5] it was 16.2 µM; in series [6] it was greater than 50 µM. The IC50 in series [7] came to 3.02 µM.
As to `COC1=CC2[C@@H]3Cc4ccc(OC)c(OCCCCOC(=O)CCCCC(CCSCc5ccccc5)SCc5ccccc5)c4[C@]2(CCN3C)CC1=O` (stereo partly drawn), the IC50 is 46.9 µM in series [1]; greater than 50 µM in series [2]; greater than 50 µM in series [3]; 36.6 µM in series [4]; 28.6 µM in series [5]; greater than 50 µM in series [6]. Besides, the IC50 in series [7] stood at 5.32 µM.
Consider `COC1=CC2[C@@H]3Cc4c(Cl)cc(OC)c(OC(=O)CCCCC(CCSCc5ccccc5)SCc5ccccc5)c4[C@]2(CCN3C)CC1=O` (stereo partly drawn), for which the IC50 in series [1], in series [2], in series [3], in series [4], in series [5] and in series [6] was greater than 50 µM throughout. The IC50 in series [7] was 26 µM.
Turning to `COC1=CC2[C@@H]3Cc4c(Br)cc(OC)c(OCCCOC(=O)CCCCC(CCSCc5ccccc5)SCc5ccccc5)c4[C@]2(CCN3C)CC1=O` (stereo partly drawn), the IC50 in series [1], in series [2], in series [3], in series [4], in series [5] and in series [6] was greater than 50 µM throughout. Besides, in series [7], inhibition was half-maximal at 24.3 µM (IC50).
With `COC1=CC2[C@@H]3Cc4c(Br)cc(OC)c(OCCCCCCOC(=O)CCCCC(CCSCc5ccccc5)SCc5ccccc5)c4[C@]2(CCN3C)CC1=O` (stereo partly drawn), the 50% inhibitory concentration (IC50) in series [1], in series [2], in series [3], in series [4], in series [5] and in series [6] was greater than 50 µM in each case. The compound also came in with an IC50 in series [7] greater than 50 µM.
In the case of `COC1=CC2[C@@H]3Cc4c(Br)cc(OC)c(OCCOC(=O)CCCCC(CCSCc5ccccc5)SCc5ccccc5)c4[C@]2(CCN3C)CC1=O` (stereo partly drawn), the IC50 in series [1], in series [2], in series [3], in series [4], in series [5] and in series [6] was greater than 50 µM in each case. The same compound showed an IC50 in series [7] of 18.9 µM.
Take `COC1=CC2[C@@H]3Cc4ccc(OC)c(OC(=O)CCCCC(CCSCc5ccccc5)SCc5ccccc5)c4[C@]2(CCN3C)CC1=O` (stereo partly drawn): the IC50 in series [1], in series [2], in series [3], in series [4], in series [5] and in series [6] was greater than 50 µM throughout. Inhibition in series [7] was half-maximal at 23.4 µM (IC50).
On to `COC1=CC2[C@@H]3Cc4ccc(OC)c(OCCCOC(=O)CCCCC(CCSCc5ccccc5)SCc5ccccc5)c4[C@]2(CCN3C)CC1=O` (stereo partly drawn), for which the IC50 in series [1] is 48.4 µM; in series [2], greater than 50 µM; in series [3] it was greater than 50 µM; in series [4] it was 37 µM; in series [5], 17.7 µM; in series [6] it was greater than 50 µM. In series [7], this compound came in with an IC50 of 4.16 µM.
For the compound `O=c1[nH]cc(F)c(=O)[nH]1` [FLUOROURACIL], the IC50 was greater than 50 µM in series [1]; 48.2 µM in series [3]; 34.9 µM in series [5]; greater than 50 µM in series [6]; 5.18 µM in series [7].
Take `COC1=CC2[C@@H]3Cc4ccc(OC)c(OCCOC(=O)CCCCC(CCSCc5ccccc5)SCc5ccccc5)c4[C@]2(CCN3C)CC1=O` (stereo partly drawn): the IC50 was greater than 50 µM in series [1]; greater than 50 µM in series [2]; greater than 50 µM in series [3]; 47.5 µM in series [4]; 11.6 µM in series [5]; greater than 50 µM in series [6]. In series [7], this compound yielded an IC50 of 158 µM.
